Assay results from patent publication US9499862B2, “Phospholinked dye analogs with an amino acid linker” (Pacific Biosciences of California, Inc., priority 2010, dated 2016).

System: DNA polymerase
Details: for 2SS characteristics: two slow step character, equals K1/K2; for K1 (S-1) / K2 (S-1): two slow step results, single molecule DNA sequencing, cyanine dye conjugate
Source text: In some cases, the system will have four kinetically observable (slow) reaction steps, two slow steps in a bright phase and two slow steps in a dark phase.

| Compound | 2SS characteristics | K1 (S-1) | K2 (S-1) |
| --- | --- | --- | --- |
| CC1(C)C(/C=C/C=C/C=C2/N(CCCCCC(=O)NC(CCCCN)C(=O)NC(CCCCN)C(=O)NCCCCCCOP(=O)(O)OP(=O)(O)OP(=O)(O)OC[C@H]3O[C@@H](n4ccc(N)nc4=O)CC3O)c3ccc4c(S(=O)(=O)O)cc(S(=O)(=O)O)cc4c3C2(C)C)=[N+](CCCS(=O)(=O)[O-])c2ccc3c(S(=O)(=O)O)cc(S(=O)(=O)O)cc3c21 (stereo partly drawn) [2Lys-tri-phosphate] | 6.5 | 2.645 | 0.406 |
| CC1(C)C(/C=C/C=C/C=C2/N(CCCCCC(=O)NC(CCC(=O)O)C(=O)NC(CCC(=O)O)C(=O)NCCCCCCOP(=O)(O)OP(=O)(O)OP(=O)(O)OC[C@H]3O[C@@H](n4ccc(N)nc4=O)CC3O)c3ccc4c(S(=O)(=O)O)cc(S(=O)(=O)O)cc4c3C2(C)C)=[N+](CCCS(=O)(=O)[O-])c2ccc3c(S(=O)(=O)O)cc(S(=O)(=O)O)cc3c21 (stereo partly drawn) [2Glu-tri-phosphate] | 7.3 | 7.898 | 1.082 |
